Results: patent US12584098B2, “In-vitro model of the human gut microbiome and uses thereof in the analysis of the impact of xenobiotics” (EUROPEAN MOLECULAR BIOLOGY LABORATORY, priority 2018, dated 2026)
Read-outs that look alike come from different tables or passages of the source. Each block holds one compound with its values, some of them ahead of it.

How the values were obtained:
gut bacterial strains = experiment: Testing for anticommensal activity at higher concentrations (validation of side effect-based predictions); assay type: cell-based
C. saccharolyticum = settings: 50 μM drug
E. coli IAI1 = settings: 50 μM drug
25 gut bacterial strains [1] = experiment: Bacteria-drug interaction screen: drug depletion from supernatant (UV-UPLC); settings: 50 μM drug, 48 h anaerobic growth
Experimental: (§1) All liquid chromatography methods are run on a Waters Acquity UPLC H-Class instrument with a PDA detector and a quaternary solvent system. All established methods are 5 minutes long, have a flow rate of 0.5 ml/min and run on a CSH C18 column (Waters, Part number 186005297) in reverse mode. The column is heated to 40° C. and samples are kept at 6° C. All methods use 50% acetonitrile (Biosolve, ULC grade) for washing buffer, and 50% methanol (Biosolve, ULC grade) for purging buffer. As organic mobile phase acetonitrile was used. The assay was optimized using only two buffers besides water as hydrophilic mobile phase: 5 mM formic acid (Biosolve, ULC grade) of pH 3.2 and 5 mM ammonium formate (Ammonium hydroxide, ACS grade, Sigma) with pH adjusted to 8.3 using the formic acid buffer.
For all drugs, a fixed concentration of 50 µM was used, which in most cases approximates the concentration of one pill (0.02-3 mmol) diluted in the volume of the gut (approx. 2.5 L). One bacteria-free control per plate and drug, but triplicates for each bacteria-drug interaction was screened. […] Growth was monitored with measurements of the optical density at 578 nm using an Eon Microplate Spectrophotometer (BIOTEK) approximately every 2 h for the first 10 h, then approximately every 6 h. […]

[2] = test system: gut bacterial strains (hits of the interaction screen); experiment: Depletion-mode assay: supernatant vs total extraction; settings: 50 μM drug, 48 h, GMM
Experimental: If the drug is only depleted in the supernatant, the drug is likely a bioaccumulated, whereas if the drug is also depleted in the extraction of the total fraction a biodegradation is likely.
as §1
Bacteria from second passage culture are inoculated with an OD578 of 0.01 in 1 mL GMM containing 50 μM drug of interest in 2 mL eppendorf tubes and incubated for 48 h while shaking. After finishing growth, the cultures were removed from the anaerobic chamber. […]

[3] = cited from earlier work
25 gut bacterial strains [4] = experiment: Growth effect (OD578) in the bacteria-drug interaction screen; assay type: cell-based, human gut bacteria; settings: 50 μM drug, 25 strains

Structure (SMILES): CN(C)C(=N)N=C(N)N [Metformin]
anticommensal activity at concentrations higher than the 20 μM of the screen (gut bacterial strains): verified

Structure (SMILES): CNCC[C@H](Oc1cccc2ccccc12)c1cccs1 [duloxetine]
effect on growth of C. saccharolyticum (C. saccharolyticum): inhibiting growth
effect on growth of E. coli IAI1 (E. coli IAI1): inhibiting growth

Structure (SMILES): O=C1[C@H](CC[C@H](O)c2ccc(F)cc2)[C@@H](c2ccc(O)cc2)N1c1ccc(F)cc1 [ezetimibe]
depletion of drug from the medium by bacterial strains (in words) (25 gut bacterial strains [1]): interacting only with a few bacterial strains

predominant mode of depletion [2]: bioaccumulation
Structure (SMILES): CC(C)(O)c1ccccc1CC[C@@H](SCC1(CC(=O)O)CC1)c1cccc(/C=C/c2ccc3ccc(Cl)cc3n2)c1 [montelukast]
depletion mode: bioaccumulation or biodegradation (in words) ([2]; supernatant vs total extraction): bioaccumulated and then partially degraded by several bacterial strains

Structure (SMILES): CC[C@@H]([C@H](C)O)n1ncn(-c2ccc(N3CCN(c4ccc(OC[C@@H]5CO[C@@](Cn6cncn6)(c6ccc(F)cc6F)C5)cc4)CC3)cc2)c1=O [posaconazole]
maximum concentration in the duodenum ([3]; 40 mg (57 μmol) delivered to the stomach in acidic solution): 26.3 ± 10.3 µM
maximum concentration in the duodenum ([3]; 40 mg (57 μmol) delivered to the stomach in neutral solution): 13.6 ± 5.8 µM

Structure (SMILES): C[C@H](Cn1cnc2c(N)ncnc21)OCP(=O)(O)O [tenofovir]
effect on bacterial growth in the screen (25 gut bacterial strains [4]): nor affecting bacterial growth
depletion of drug from the medium by bacterial strains (in words) (25 gut bacterial strains [1]): neither being depleted
